According to patent US5173403A, “Thermostable acid protease from sulfolobus acidocaldarius and gene” (Oklahoma Medical Research Foundation, priority 1990, dated 1992):
“And” between values parts separate entries of the source, which are not always exact repeats. Identical values can stand only once. “Also recorded” adds a separate entry of the source. Like-named read-outs stand apart in the source and are kept apart here. Numbered stars: 1 amine (or outer) side, 2 acyl side, 3 side chain; on linkers, the order of the positions; unused ones are H or OH. Square brackets hold non-standard residues; d marks the D form. Peptide text beside a SMILES is read from it. * marks the point of attachment. Sta = CC(C)C[C@H](N)[C@@H](O)CC(=O)O; Isovaleryl = CC(C)CC(=O)*; CO = O=C([*:1])[*:2]

Biological target: T1, thermopsin, thermostable acid protease purified from Sulfolobus acidocaldarius culture medium (Sulfolobus acidocaldarius, UniProt P17118)
T1 construct: There are 41 amino acids in front of the NH2 -terminal position of thermopsin including the initiation methionine; made in house; host or cells: native enzyme purified from Sulfolobus acidocaldarius culture medium (not recombinant)
T1 sequence (P17118 42-340): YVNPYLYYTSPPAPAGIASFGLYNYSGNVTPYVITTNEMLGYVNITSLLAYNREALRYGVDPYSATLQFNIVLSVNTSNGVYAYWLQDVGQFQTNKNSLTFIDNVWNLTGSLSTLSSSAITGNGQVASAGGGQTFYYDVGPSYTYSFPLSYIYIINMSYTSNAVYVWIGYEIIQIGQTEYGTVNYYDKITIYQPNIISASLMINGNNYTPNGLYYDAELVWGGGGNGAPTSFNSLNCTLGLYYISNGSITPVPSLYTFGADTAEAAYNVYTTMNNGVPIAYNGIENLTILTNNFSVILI
Test: Effects of proteinase inhibitors on thermopsin (preincubation with inhibitor, then 14C-hemoglobin proteolytic assay)
Type: biochemical
Conditions: for remaining activity at 20 µM: 0.02 mM inhibitor in preincubation (pH 6.0, 37° C., 5 min); for remaining activity at 10 µM: 0.01 mM inhibitor in preincubation (pH 6.0, 37° C., 5 min)
Experimental: Proteolytic activity is routinely assayed using ^14 C-methylated bovine hemoglobin as substrate, as prepared according to the method of Lin, et al., J. Biol. Chem. 264,4482-4489 (1989). The assay mixture, containing 0.51% hemoglobin substrate and thermopsin in 0.1 ml of 0.1M sodium formate, pH 3.2, is placed in an Eppendorf tube. After incubation at 80° C. for a period of time between 5 to 30 min, depending on the level of activity of thermopsin used, an aliquot of 0.1 ml of 10% trichloracetic acid is added to stop the reaction and precipitate the protein. After removal of the precipitate by centrifugation, the radioactivity of an aliquot of the clear supernate is determined in a scintillation counter.
The effect of various protease inhibitors on the activity of thermopsin was tested.
Thermopsin is preincubated with the indicated level of inhibitor in 0.1 M
phosphate buffer, pH 6.0, containing 1 mM EDTA and DTT at 37° C.
for 5 min. Sodium formate (pH 3.2) and ^14 CHemoglobin is then added
to a concentration as described above. The enzyme assay is then carried
out at 80° C. for 15 min. Enzyme activity is expressed as percent

[1] = concentration not given, see Table II
[2] = assay pH 3.2, 80° C., 15 min, percent of control, read-out: Enzyme Activity (%)

`CCCCC(NC(=O)C=[N+]=[N-])C(=O)OC` (racemic) [DAN, diazoacetyl-DL-norleucinemethlyester] was tested, and the remaining activity at 12000 µM (12 mM inhibitor in preincubation (pH 6.0, 37° C., 5 min), assay pH 3.2, 80° C., 15 min, percent of control, read-out: Enzyme Activity (%)) was 100% and the “effect of inhibitor on thermopsin activity (in words)” value (shortened to “effect of inhibitor”) [1] was “not inactivated; also recorded: no effect”.
For `CC(C)[C@H](NC(=O)[C@H](CCCNC(=N)N)NC(=O)N[C@@H](Cc1ccccc1)C(=O)O)C(=O)N[C@H](C=O)CCCNC(=N)N` [Antipain, antipain] ({Phe-CO}-Arg-Val-Arg-aldehyde), the remaining activity at 20 µM [2] was 25% and the “effect of inhibitor” value [1] was “inhibited; also recorded: significant inhibition”.
With `O=C(O)CN(CCN(CC(=O)O)CC(=O)O)CC(=O)O` [EDTA] the “effect of inhibitor” value was “little effect” and the remaining activity at 1000 µM (read-out: Enzyme Activity (%)) was 100%.
`CC(C)C[C@H](NC(=O)N[C@H](C(=O)N[C@@H](CCC(N)=O)C(=O)N[C@@H](C)C=O)[C@@H]1CCNC(=N)N1)C(=O)O` [Elastatinal, elastatinal] gave a remaining activity at 20 µM [2] of 70%.
For `O=C(O)CI` [Iodoacetic Acid, iodoacetic acid], the “effect of inhibitor” value was “little effect” and the remaining activity at 100 µM (read-out: Enzyme Activity (%)) was 74%.
`CC(=O)N[C@@H](CC(C)C)C(=O)N[C@@H](CC(C)C)C(=O)N[C@H](C=O)CCCNC(=N)N` [Leupeptin, leupeptin] gave a remaining activity at 4 µM (0.004 mM inhibitor in preincubation (pH 6.0, 37° C., 5 min), assay pH 3.2, 80° C., 15 min, percent of control, read-out: Enzyme Activity (%)) of 93%.
For `CCN1C(=O)C=CC1=O` [N-ethylmaleimide], the remaining activity at 100 µM (0.1 mM inhibitor in preincubation (pH 6.0, 37° C., 5 min), assay pH 3.2, 80° C., 15 min, percent of control, read-out: Enzyme Activity (%)) was 95% and the “effect of inhibitor” value [1] was “little effect”.
For `O=S(=O)(F)Cc1ccccc1` [PMSF, phenylmethylsulfonyl fluoride], the “Enzyme Activity (%)” value (2 mM inhibitor in preincubation (pH 6.0, 37° C., 5 min), assay pH 3.2, 80° C., 15 min, percent of control) was 28% and the “effect of inhibitor” value [1] was “significantly inactivate; also recorded: significant inhibition”.
In the case of `CC(C)CC(=O)N[C@H](C(=O)N[C@H](C(=O)N[C@@H](CC(C)C)[C@@H](O)CC(=O)N[C@@H](C)C(=O)N[C@@H](CC(C)C)[C@@H](O)CC(=O)O)C(C)C)C(C)C` [Pepstatin, pepstatin] (Isovaleryl-VV[Sta]A[Sta]-OH), the remaining activity at 0.5 µM (0.5 μM inhibitor in preincubation (pH 6.0, 37° C., 5 min), assay pH 3.2, 80° C., 15 min, percent of control, read-out: Enzyme Activity (%)) is reported as 50%, the remaining activity at 5 µM (5 μM inhibitor in preincubation (pH 6.0, 37° C., 5 min), assay pH 3.2, 80° C., 15 min, percent of control, read-out: Enzyme Activity (%)) is reported as 16% and the “effect of inhibitor” value [1] is reported as “strongly inhibited”. For the same molecule, the IC50 (thermopsin proteolytic activity, hemoglobin substrate, read-out: inhibitor concentration giving 50% inhibition of enzyme activity) was ~500 nM and 500 nM.
With `Cc1ccc(S(=O)(=O)N[C@@H](CCCCN)C(=O)CCl)cc1` [TLCK, N-p-Tosyl-1-lysine chloromethyl ketone] the remaining activity at 10 µM [2] was 78% and the “effect of inhibitor” value [1] was “much less effective”.
With `Cc1ccc(S(=O)(=O)N[C@@H](Cc2ccccc2)C(=O)CCl)cc1` [TPCK, N-Tosyl-L-phenylalanine chloromethyl ketone] the remaining activity at 10 µM [2] was 14% and the “effect of inhibitor” value [1] was “significantly inactivate; also recorded: significant inhibition”.
